Records with an inconclusive call do not appear. Activity calls are given as the source filed them. The rule behind the calls is not given here.
What follows are compounds tested on C. albicans CaCi-8 + fluconazole, Alamar Blue growth, 48 h (assay: resistant C. albicans growth inhibition with fluconazole, dose response, CaCi-8 strain, Alamar Blue fluorescence (AID 2423)).

Point of comparison: Cc1ccc2nc(Cl)c3nnnn3c2c1, EC50 230 nM. Against it:
- N#CC1CC(c2ccccc2)=NN1c1ccccc1[N+](=O)[O-] (centres undefined) — 1.8-fold higher, 404 nM
- Nc1nc(N)c2cc(Sc3ccc4ccccc4c3)ccc2n1 — 5.1-fold higher, 1180 nM
- CCOC(=O)c1nc(NNC(=O)c2ccc([N+](=O)[O-])cc2)sc1C — 4.3-fold higher, 981 nM
- COc1cccc2sc(Nc3nnc(-c4ccc(F)cc4)o3)nc12 — 5.4-fold higher, 1240 nM
- O=C(Nc1nc(-c2ccccn2)cs1)c1cc2ccccc2o1 — 3.9-fold higher, 903 nM
- C(#Cc1ccccc1)C[N+]1(CC#Cc2cccc3ccccc23)CCCC1 — 25-fold higher, 5640 nM
- CC(C)Cc1nc2oc3c(=O)[nH]cnc3c2c2c1CCCC2 — within 1.5-fold, 297 nM
- S=C(Nc1ccccc1)Nc1nc2ccccc2n1CCOc1ccc(Cl)cc1 — 4.2-fold higher, 962 nM
- O=C(/C(=N/N=C/c1ccc(O)c(O)c1O)c1ccccc1)c1ccccc1 — 10-fold higher, 2300 nM
- COC(=O)c1ccc(COc2ccc(/C=C(\C#N)c3nc4ccccc4[nH]3)cc2OC)o1 — 11-fold higher, 2620 nM
- COc1ccc(/C=C2\N=C(SC)NC2=O)cc1 — 16-fold higher, 3750 nM
- Cc1c(Cl)ccc2c1NC(=O)[C@]21N[C@@H](Cc2ccccc2)[C@H]2C(=O)N(c3ccc(F)cc3)C(=O)[C@H]21 — lower, < 120 nM
- C[C@@H]1CC[C@@]2(NC1)O[C@H]1C[C@H]3[C@@H]4CC=C5C[C@@H](O)CC[C@]5(C)[C@H]4CC[C@]3(C)[C@H]1[C@@H]2C — 1.7-fold lower, 132 nM
- CC(=O)c1cccc(NC(=S)NC(=O)c2ccc(C)cc2)c1 — 17-fold higher, 3850 nM
- O=C(/C=C/c1ccc(F)cc1)N1CCN(c2ccccn2)CC1 — 3.5-fold higher, 800 nM
- Cc1ccc(-n2nc(C)c3c(C)cc(=O)[nH]c32)cc1 — 9-fold higher, 2080 nM
- CC12CCC(C(=O)N(NC(=O)c3ccccc3O)C1=O)C2(C)C (centres undefined) — 60-fold higher, 13900 nM
- CCN(CC)c1ccc2nc3ccccc3[n+](CC)c2c1 — 3.7-fold higher, 842 nM
- COc1cccc(/C=N/Nc2cc(-n3nc(C)cc3-c3ccccc3)ncn2)c1O — 2.9-fold higher, 662 nM
- CCCCn1c(SCC(=O)Nc2cccc(OC)c2)nc2ccc(N3CCOCC3)cc2c1=O — 16-fold higher, 3630 nM
- c1ccc(Sc2cccc3ccccc23)c(CNC2=NCCN2)c1 — 41-fold higher, 9520 nM
- CC1CCN(Cc2c(C(=O)N/N=C/c3cc(Br)ccc3O)nnn2-c2nonc2N)CC1 — 3.9-fold higher, 908 nM
- O=C(CN1CCN(S(=O)(=O)c2ccccc2)CC1)Nc1ccc2c(c1)CCC2 — 46-fold higher, 10500 nM
- Cc1c(CCOC(=O)CC23CC4CC(CC(C)(C4)C2)C3)sc[n+]1Cc1ccc([N+](=O)[O-])cc1 — 52-fold higher, 11900 nM
- O=S(=O)(Nc1cccc2cccnc12)c1ccc(S(=O)(=O)N2CCCC2)cc1 — 24-fold higher, 5620 nM
- CC1(C)C(O)=C(c2nc3ccccc3[nH]2)C(=N)N1c1ccccc1 — 43-fold higher, 9820 nM
- Oc1c(C(Nc2nc3ccccc3s2)c2ccco2)ccc2cccnc12 (centres undefined) — 8.6-fold higher, 1980 nM
- O=C(Nc1nc(-c2ccccn2)cs1)c1ccc(Br)s1 — 4.3-fold higher, 1000 nM
- CC(C)OP(=O)(c1ccc(N(C)C)cc1)C(O)c1ccccc1 (centres undefined) — 19-fold higher, 4320 nM
- CC(C)CCOc1cccc(OCC(=O)Nc2ccncc2)c1 — 14-fold higher, 3220 nM
- Cc1ccc(-n2ncc(Br)c(Br)c2=O)cc1 — 3.7-fold higher, 855 nM
- Cc1ccc(OCC(=O)NNC(=S)NC(=O)C2CC2)c(C)c1 — 3.6-fold higher, 830 nM
- Cc1cccc(N=Nc2c(C)[nH]n(C(N)=S)c2=O)c1C — 4.1-fold higher, 944 nM
- Oc1ccc(CN2CCCCC2)c2cccnc12 — 70-fold higher, 16100 nM
- O=c1c2ccccc2nc(N/N=C/c2c(O)ccc3ccccc23)n1O — within 1.5-fold, 238 nM
- CCn1c(C)nc2cc(C(=O)N/N=C/c3ccc(O)c(O)c3O)ccc21 — 4.3-fold higher, 989 nM
- Oc1c(CN2CCc3ccccc3C2)cc(Cl)c2cccnc12 — 3.7-fold higher, 849 nM
- CCCC(=O)NC(c1cccs1)c1cc(Cl)c2cccnc2c1O (centres undefined) — 3.2-fold higher, 729 nM
- Oc1ccc(CN2CCC(Cc3ccccc3)CC2)c2cccnc12 — 5.8-fold higher, 1340 nM
- CCOC(=O)c1c(-c2ccccc2)oc2ccc(OCC(O)CN(C)C)cc12 (centres undefined) — 5.6-fold higher, 1290 nM
- CC(C)n1cc(/C=C/c2cc[n+](C)cc2)c2ccccc21 — 13-fold higher, 3090 nM
- Cc1ccc(C)c(NC(=S)NNC(=O)c2csc(C)c2)c1 — 3.1-fold higher, 704 nM
- COc1cccc(-c2nc(NC(C)C)c3ccccc3n2)c1O — 14-fold higher, 3200 nM
- Cc1noc2ncnc(Sc3ccc(Cl)cc3)c12 — 13-fold higher, 2930 nM
- CCCNC(=O)c1ccc2c(=O)c(O)c(-c3cccc(Br)c3)[nH]c2c1 — 13-fold higher, 3040 nM
- O=C(OCn1ncc(Cl)c(Cl)c1=O)c1cccc(C(F)(F)F)c1 — 11-fold higher, 2460 nM
- Cc1oc2ccc(OC(=O)N(C)C)cc2c1C(=O)OC(C)C — 17-fold higher, 4000 nM
- Cc1noc2ncnc(Sc3ccc(Br)cc3)c12 — 11-fold higher, 2640 nM
- COc1cc2c(O)c3c(c(-c4ccc5c(c4)OCO5)c2cc1OC)C(=O)OC3 — 9.6-fold higher, 2210 nM
- COc1ccc(/C=N\NC(=O)c2cc(O)c(O)c(O)c2)cc1CN1CCN(c2ccc(F)cc2)CC1 — 6.9-fold higher, 1580 nM
- COc1ccc(NC(=O)C(=O)NNC(=O)c2ccc(Cl)cc2Cl)cc1 — 3.9-fold higher, 888 nM
- O=C(NC(=S)Nn1cnc2c(cnn2-c2ccccc2)c1=O)c1ccc(Cl)cc1 — 18-fold higher, 4150 nM
- Cc1cc(C)c(-c2cc(NC(=O)COC(=O)c3ccc(C#N)cc3)n(-c3ccccc3)n2)cc1C — 1.7-fold higher, 397 nM
- Cc1cc2ccccn2c1C(C[N+](=O)[O-])c1c(F)cccc1Cl (centres undefined) — 1.7-fold higher, 382 nM
- Cc1cc(-c2cc(C(=O)O)c3ccccc3n2)c(C)s1 — 9.9-fold higher, 2270 nM
- c1ccc(-c2ccccc2OCCCN2CCCCCC2)cc1 — 29-fold higher, 6610 nM
- Cc1ccc(C(=O)Nc2cccc(-c3cn4ccccc4n3)c2)cc1 — within 1.5-fold, 326 nM
- O=C(N/N=C/c1cc(Br)cc(Cl)c1O)c1ccc2c(c1)OCO2 — 12-fold higher, 2750 nM
- Oc1c(C(c2ccccn2)N2CCC(Cc3ccccc3)CC2)cc(Cl)c2cccnc12 (centres undefined) — 8.2-fold higher, 1880 nM
- CCc1ccc2oc(-c3ccc(OC)cc3)cc(=Nc3c(C)n(C)n(-c4ccccc4)c3=O)c2c1 — 6.7-fold higher, 1540 nM
- Cc1ccc(C(=O)O/N=C/c2c(N3CCOCC3)n(C)c3ccccc23)cc1 — 2.7-fold higher, 623 nM
- Cc1cc(C)cc(OCC(=O)NNC(=S)NC(=O)C2CC2)c1 — 2.8-fold higher, 646 nM
- C=CCN(CC=C)Cc1c(O)ccc2c(=O)c(-c3ccccc3)coc12 — lower, < 120 nM
- CC/C(=N/NC(=O)c1ccccc1O)c1c(C)[nH]n(-c2ccccc2)c1=O — 3.3-fold higher, 754 nM
- CC(=O)N(Cc1ccc(F)cc1)C1=C(NCc2ccccc2)C(=O)c2ccccc2C1=O — 2.6-fold higher, 596 nM
- O=C(N/N=C/c1cc2c3c(c1O)CCCN3CCC2)c1ccccc1O — 3.9-fold higher, 895 nM
- O=C(CNc1ccc2ccccc2c1)N/N=C/c1ccc([N+](=O)[O-])o1 — 5.6-fold higher, 1280 nM
- CSc1ccc(C2c3[nH]c4ccccc4c3CCN2C(=O)c2ccnn2C)cc1 (centres undefined) — 10-fold higher, 2350 nM
- Cc1ccc(C(=O)c2coc3c2C(=O)C(=O)c2ccccc2-3)cc1 — 1.6-fold lower, 146 nM
- O=C(Nc1cccc2ccccc12)c1ccc([N+](=O)[O-])o1 — 3.2-fold higher, 726 nM
- Cc1ccc(C(c2cc(Cl)c3cccnc3c2O)N2CCN(C)CC2)cc1 (centres undefined) — 3.1-fold higher, 704 nM
- Cc1cc(Sc2ncnc(N)c2[N+](=O)[O-])ncn1 — 2.9-fold higher, 659 nM
- O=C(Nc1nnc(C2COc3ccccc3O2)o1)c1ccc(F)cc1 (centres undefined) — 4-fold higher, 910 nM
- Oc1ccc(Br)cc1/C=N/Nc1ccccn1 — 11-fold higher, 2590 nM
- CCCC(=O)NC(c1ccccc1)c1ccc2cccnc2c1O (centres undefined) — 3.4-fold higher, 783 nM
- Cc1ccc(O)c(C2=NNC(c3ccc(Cl)cc3)C2)c1 (centres undefined) — 1.7-fold higher, 395 nM

For CCOC(=O)c1cc2c(=O)n3ccccc3nc2n(CCOC)c1=NC(=O)c1ccncc1, the EC50 was > 15000 nM (inactive).
For COc1ccc2c(c1OC)C(=O)N1N=C(c3ccc(O)cc3)CC21 (centres undefined), the EC50 was > 15000 nM (inactive).
For O=C(CN1C(=O)S/C(=C\c2ccccn2)C1=O)Nc1ccccc1, the EC50 was > 15000 nM (inactive).
For O=C(NC(Cc1ccccc1)C(=O)NCc1ccccn1)c1ccco1 (centres undefined), the EC50 was > 15000 nM (inactive).
For O=C(CNc1ccccc1F)N/N=C/C1CC=CCC1 (centres undefined), the EC50 was > 16000 nM (inactive).
In the case of COc1cc2c(cc1O)CC[n+]1cc3c(OC)c(OC)ccc3cc1-2, the EC50 is reported as > 16000 nM (inactive).
For Cc1cccc(N2CCN(c3nc(C)cc(C)c3C#N)CC2C)c1 (centres undefined), the EC50 was > 16000 nM (inactive).
For O=C(OCn1ncc(Cl)c(Cl)c1=O)c1ccc(F)cc1, the EC50 was > 16000 nM (inactive).
With CCc1nn(CCCC(=O)NCc2ccc(C)cc2)c(=O)c2cc3occc3n12 the EC50 was > 16000 nM (inactive).
With C/C(=C\C(=O)OCCCCCCCCC(=O)O)C[C@@H]1OC[C@H](C[C@@H]2O[C@H]2[C@@H](C)[C@H](C)O)[C@@H](O)[C@H]1O the EC50 was > 15000 nM (inactive).
For COc1cccc(C(=O)NNC(=O)c2ccccc2Br)c1, the EC50 was > 15000 nM (inactive).
With Cc1ccc(Cn2nnc3c(=O)[nH]c(C4CCN(S(=O)(=O)c5ccc(C)cc5)CC4)nc32)cc1 the EC50 was > 15000 nM (inactive).
In the case of CCC(C)(C)c1ccc(OCCCC[n+]2ccc(C)cc2)c(C(C)(C)CC)c1, the EC50 is reported as > 16000 nM (inactive).
COc1cnc(-c2ccccn2)nc1Sc1cccc(Cl)c1 was tested, and the EC50 was > 16000 nM (inactive).
With C/C(CC(C)(C)C1CCCCC1)=N\NC(N)=S the EC50 was > 16000 nM (inactive).
With NC1=NC(=O)C(Cc2cccc(Cl)c2Cl)S1 (centres undefined) the EC50 was > 16000 nM (inactive).
CSC(=S)NCc1cccnc1 was tested, and the EC50 was > 16000 nM (inactive).
For Cc1ccc(SCC(=O)Nc2ccc3c(c2)C(=O)N(C)C3=O)cc1, the EC50 was > 15000 nM (inactive).
CC1(C)CC(=O)C2=C(C1)c1c(ccc3ccccc13)NC2c1cc([N+](=O)[O-])cc([N+](=O)[O-])c1O (centres undefined) was tested, and the EC50 was > 15000 nM (inactive).
In the case of O=C(Nc1nc(=O)c2ccccc2s1)c1ccc(Cl)cc1, the EC50 is reported as > 15000 nM (inactive).
For CCCCn1c(CN2CCN(C(=O)OCC)CC2)nc2c1c(=O)n(C)c(=O)n2C, the EC50 was > 15000 nM (inactive).
With CCCCn1c(=O)[nH]c(=O)c2c1nc(-c1ccc(-c3ccccc3Br)o1)n2CC the EC50 was > 15000 nM (inactive).
For Cc1ccc(S(=O)(=O)NNC(=O)c2ccc(NC(=O)C3CC3)cc2)cc1, the EC50 was > 15000 nM (inactive).
O=C(CSc1nnc(-c2ccco2)n1Cc1ccccc1)OC1CCCCC1 was tested, and the EC50 was > 15000 nM (inactive).
CN(/C(=N/S(=O)(=O)c1cccs1)c1ccccc1)c1ccc(O)cc1 was tested, and the EC50 was > 15000 nM (inactive).
In the case of CCOc1ccc2c(c1)OC(c1ccc(C)cc1)(C(F)(F)F)NC2=O (centres undefined), the EC50 is reported as > 16000 nM (inactive).
For O=C(N/N=C/c1ccc(Cl)cc1Cl)Nc1ccccc1, the EC50 was > 16000 nM (inactive).
With Cc1nn(CC(=O)NCCCc2ccccc2)c(C)c1[N+](=O)[O-] the EC50 was > 15000 nM (inactive).
For COc1ccc(OC)c(NC(=O)C(=O)/C=C(\O)c2cc(OC)ccc2OC)c1, the EC50 was > 15000 nM (inactive).
In the case of COc1ccc(-c2csc(N(CC3CCCO3)C(=O)c3ccco3)n2)cc1 (centres undefined), the EC50 is reported as > 16000 nM (inactive).
For CCCCN(C)S(=O)(=O)c1ccc(C(=O)Nc2nnc(-c3ccco3)o2)cc1, the EC50 was > 16000 nM (inactive).
For N#C/C(=C(/O)COc1ccc(Cl)cc1)c1nc2ccccc2s1, the EC50 was > 15000 nM (inactive).
